Paper PMC5656594 (Scientific Reports, 2017)

How the values were obtained:
[1] = molecular target: T1, PFV IN complexed with various DNA sequences (Human spumaretrovirus, UniProt P14350); assay: DTG binding to IN complexed with various DNA sequences, fluorescence intensity procedure; set-up: species or system prototype foamy virus (PFV); settings: for DTG-binding (%) Fluorescence intensity procedure: normalized by DNA#1, [IN]=[DNA]=1.8 μM, [DTG]=0.3 μM, 1 mM Mg2+
T1 construct: The full-length wt IN^PFV, the three single mutants of the catalytic triad; His; made in house; host or cells: E. coli BL21-CodonPlus (DE3)-RIPL
Experimental: All experiments were performed in the presence of 1 mM Mg^2+ (see Supplementary Fig. S4 for [Mg^2+] = 10 mM). λex = 345 nm and PMT = 980 V (Δλex = Δλem = 5 nm). […] Contributions of Raman and Rayleigh scattering were eliminated in the inset spectrum: (viii) = (iv)–(vii) where (vii) represents the proper spectrum of Mg^2+-DTG in the context of the binary IN-DNA complex. […] [Mg^2+] = 1 mM. Inset: fluorescence intensity (375–385 nm) as a function of (IN + DNA). The arrows indicate the intensity level after addition of 500 mM NaCl. Emission spectra are representative of 3 independent experiments for each condition of (IN + DNA). […] (E) Measurement of the binary IN-DNA complex formation. The formation of binary complexes was performed by monitoring the fluorescence anisotropy (r) of DNA (Fl-PFV^CAAT) under similar experimental conditions of the DTG-binding assay (panels C-D). Top, varying stoichiometric concentrations of IN and DNA were mixed and the r parameter was monitored. A constant concentration of Fl-DNA (0.3 μM) was maintained throughout the titration. […] Bottom, corresponding percentages of binary complexes as a function of (IN + DNA): % = (r–r0)/(rmax–r0)x100 where r0 and rmax correspond to anisotropy values of free DNA and IN-bound DNA, respectively. (F) Linear relationship between the percentages of ternary and binary complexes. […]
Fluorescence excitation and emission spectra of INSTIs were recorded on a Eclipse (Varian) spectrofluorimeter equipped with two polarizers for anisotropy measurements and a thermostated cell holder, using 80 µl solutions placed in micro cells (Hellma). Drug, IN and DNA concentrations, excitation/emission slit settings as well as the photomultiplier tube (PMT) voltage are specified in figure legends. The intensity value was corrected from the inner filter effect. The steady-state fluorescence anisotropy was calculated using: r = (IVV–G x IVH)/(IVV + 2GxIVH) where IVV and IVH correspond to vertical and horizontal components, respectively, when the sample is excited with vertically polarized light. G represents the correction factor for the difference in the monochromator transmission between // and ⊥ polarized components: G = IHV/IHH. All experiments were performed at 25 °C in buffer A: 20 mM Tris pH 7.2, 50 mM NaCl, 1 mM DTT and 10% (v/v) DMSO.

G187R IN^PFV-DNA complex = molecular target: T2, G187R IN^PFV-DNA complex (Human spumaretrovirus, UniProt P14350, G938R/G968S/S969G); assay: DTG fluorescence anisotropy binding assay, G187R mutant; set-up: species or system prototype foamy virus (PFV); settings: 10 mM Mg2+, DTG 0.6 μM, [IN]=[DNA]=2.4 μM
T2 construct: The pET-IN-PFV plasmid containing the full-length IN gene was used for mutagenesis; His; made in house; host or cells: E. coli BL21-CodonPlus (DE3)-RIPL
Experimental: The fluorescence intensity was monitored as a function of (IN + DNA) and plotted as a function of the binary IN-DNA complex concentration (measured as explained in Fig. 2E legend). […] (B) The percentage of ternary complexes was calculated using DTG fluorescence enhancement. […] The graphs in panels A-B show representative data of three independent experiments. […] "DTG" is taken from the y-axis title of the same panel.
To note, Mg^2+ is dispensable for the overall DNA-binding step of IN[32],[43]–[45] and thus, the loss of Mg^2+ chelation is not contradictory with results showing that catalytic mutants bind equally well to DNA and in a similar manner than wt IN (Supplementary Fig. S6). However, G187R cannot be considered as a catalytic mutant since it sustains a significant ST activity although weak (≈10% of the wt activity; Fig. 6).
Fluorescence excitation and emission spectra of INSTIs were recorded on a Eclipse (Varian) spectrofluorimeter equipped with two polarizers for anisotropy measurements and a thermostated cell holder, using 80 µl solutions placed in micro cells (Hellma). […] The steady-state fluorescence anisotropy was calculated using: r = (IVV–G x IVH)/(IVV + 2GxIVH) where IVV and IVH correspond to vertical and horizontal components, respectively, when the sample is excited with vertically polarized light. […]

[2] = molecular target: T3, IN^PFV-DNA complexes (DNA#1, DNA#6, DNA#7) (Human spumaretrovirus, UniProt P14350); assay: Inhibition of ST activity by DTG using DNA#1, DNA#6 or DNA#7 substrates; format: biochemical, prototype foamy virus (PFV); settings: 100 nM DTG, 300 nM IN
T3 construct: The full-length wt IN^PFV, the three single mutants of the catalytic triad; His; made in house; host or cells: E. coli BL21-CodonPlus (DE3)-RIPL
Excerpt: The results in Table 1 cannot discriminate between a direct sequence effect on DTG-binding from an indirect effect via a possible defect in the IN-DNA interaction. The binding of IN to various DNA sequences (DNA#1 #8 #9 and #13) was similar, as measured by fluorescence anisotropy using fluorescein-labeled DNAs (Supplementary Fig. S5A). […] The X-ray structure of the IN^PFV-DNA complex highlights specific contacts (about 9) between amino acids and the bases of the two strands (i.e. reactive and non-transferred DNA strands), up to the 10th position from the reactive strand 3′-end[26]. In particular, there is a specific contact involving a guanine of the non-transferred strand at pos. 10 and the N69 residue. […] To note, based on X-ray structures of ternary RAL/or DTG-IN-DNA complexes[26],[29] in which the INSTI has direct contacts with several bases at pos.
Figure S5. Comparison of the binary INPFV-DNA complex formation using various DNA sequences. (A) The binding of INPFV to various DNA sequences was studied by steady-state […]
concentrations of IN and DNA were mixed in the presence of 1mM Mg2+ and the r parameter was monitored. A constant concentration of Fl-DNA (0.3 µM) was maintained throughout the titration. The percentage of binary complexes as a function of (IN+DNA) was calculated using: %=(r–r0)/(rmax–r0) x100 where r0 and rmax correspond to anisotropy values of free DNA and IN-bound DNA, respectively.
(B) ST activity of IN (200 or
300 nM) after 4h incubation at 37°C using radiolabeled DNA#1, #6 or #7. Results are expressed as percentage of the activity corresponding to: DNA#1 + 300 nM IN. (C) Inhibition of the ST activity by […]
IN concentration was 300 nM. For each substrate,
The bar graphs in panels B-
(also on this page, place not known: PFV-DNA steady -state IN Strand transfer activity (% of ST with and 300 nM IN) strand transfer (% of untreated) Binary IN-DNA complexes (%) DNA#1)

C[C@@H]1CCO[C@H]2Cn3cc(C(=O)NCc4ccc(F)cc4F)c(=O)c(O)c3C(=O)N12 [DTG, dolutegravir]
DTG-binding (%) Fluorescence intensity procedure ([1]; DNA#1 (cognate)): 100%
DTG-binding (%) Fluorescence intensity procedure ([1]; DNA#2): 83 ± 5%
DTG-binding (%) Fluorescence intensity procedure ([1]; DNA#3): 89 ± 6%
DTG-binding (%) Fluorescence intensity procedure ([1]; DNA#4): 84 ± 4%
DTG-binding (%) Fluorescence intensity procedure ([1]; DNA#5): 101 ± 5%
DTG-binding (%) Fluorescence intensity procedure ([1]; DNA#6): 76 ± 5%
DTG-binding (%) Fluorescence intensity procedure ([1]; DNA#7): 20 ± 3%
DTG-binding (%) Fluorescence intensity procedure ([1]; DNA#8): 7 ± 2%
DTG-binding (%) Fluorescence intensity procedure ([1]; DNA#9 (random sequence)): 9 ± 2%
DTG-binding (%) Fluorescence intensity procedure ([1]; DNA#10): 23 ± 3%
DTG-binding (%) Fluorescence intensity procedure ([1]; DNA#11): 24 ± 2%
DTG binding activity, % of the binding activity obtained with DNA#1 ([1]; DNA#12 (CAAT-3′→CAGT-3′), both procedures (text summary of Table 1)): 72–77%
DTG-binding (%) Fluorescence intensity procedure ([1]; DNA#12): 72 ± 6%
DTG-binding (%) Fluorescence intensity procedure ([1]; DNA#13 (processed DNA product)): 66 ± 4%
DTG binding activity, % of the binding activity obtained with DNA#1 ([1]; IN in complex with DNA#2→6 (text summary of Table 1)): > 76%
DTG binding to G187R by DTG anisotropy (G187R IN^PFV-DNA complex): DTG-binding defects
ST inhibition by DTG ([2]; IN-DNA#1 complexes): remained DTG-sensitive
ST inhibition by DTG ([2]; IN-DNA#6 complexes): remained DTG-sensitive
ST inhibition by DTG ([2]; IN-DNA#7 complexes): absence of ST inhibition
